Reference: PMC12058896, “Potent antimicrobial activity of hydrogel loaded with the antimicrobial peptide, D-Bac8c^2,5 Leu, against monospecies and polymicrobial biofilms of Staphylococcus aureus and Pseudomonas aeruginosa” (Frontiers in Microbiology, 2025)
≈ marks a conversion by molar mass, not a printed value. Marks after values point to notes of the source that are not given here. Non-standard residues stand in square brackets, D forms with d. Residues, ends and D or L forms follow the SMILES beside them.

Experiments:
S. aureus strains = type: cell-based, Staphylococcus aureus; conditions: 2 MRSA and 2 MSSA strains, summed up in text
Experimental: (§1) Strains used in the study were isolates of methicillin-resistant Staphylococcus aureus (MRSA); USA300 LAC, BH1CC ([O’Neill et al., 2007]), methicillin-sensitive S. aureus (MSSA); SH1000 ([Horsburgh et al., 2002]) and BH48 ([O’Neill et al., 2007]); and Pseudomonas aeruginosa PAO1 (ATCC […]). Clinical isolates were obtained from a previous collection of isolates of infected wounds. Bacteria were grown aerobically at 37°C with shaking at 200 rpm in Brain Heart Infusion (BHI, Oxoid, Ireland). Selective media, Mannitol Salt Agar (SLS, Ireland) and MacConkey agar (SLS, Ireland), for re-isolation of bacterial strains from mixed species biofilms were used. Bolton Broth (Fannin, Ireland) supplemented with 50% bovine heparin plasma (TebuBio, UK), and 5% laked horse blood (Sigma-Aldrich, Ireland) was used to mimic in vivo conditions for static antibiofilm testing. For dynamic biofilm growth Simulated Wound Fluid (SWF) prepared as described previously with slight modification, 3% v/v fetal bovine serum in maximum recovery diluent (Merck, Ireland) was used ([Barbour et al., 2016]).
Minimum inhibitory concentration (MIC) was determined aerobically using the broth microdilution assay as recommended by the Clinical and Laboratory Standards Institute (CLSI) ([CLSI, 2018]). […]

[1] = tested on: PAO1 + USA300 polymicrobial biofilm; assay: Static polymicrobial biofilm, CFU enumeration; type: cell-based, S. aureus + P. aeruginosa; conditions: 24 h biofilm PAO1 + USA300, 256 μg/mL, 6 h, 37°C
Experimental: (§2) Biofilms were formed under static conditions using flat 96-well polystyrene plates as described previously with few modifications ([Nasreddine et al., 2018]). Briefly, overnight cultures in BHI were washed and diluted 1:200 in fresh Bolton Broth media supplemented with 50% bovine heparin plasma, and 5% laked horse blood. From this suspension, 100 μL was used to inoculate the microtiter plate wells prior to static incubation at 37°C for 24 h, 3 days and 5 days. The media in each well was changed daily during prolonged incubation periods (3 and 5 days). Following the initial incubation period and washing, 100 μL of D-Bac8c^2,5 Leu, was added to each test well at 37°C for 6 h at a concentration range of 64–256 μg/mL. After incubation with D-Bac8c^2,5 Leu, biofilms were washed twice with PBS and biofilm assessment was performed. For the polymicrobial biofilms, a bacterial solution ratio 1:1 of S. aureus and P. aeruginosa at 1 × 10^5 CFU/mL each was used to inoculate the wells. In each assay, inoculated medium without antimicrobials and uninoculated medium served as growth and sterility controls, respectively. Experiments were conducted in triplicate, and independent replicates were performed three times to yield n = 3.
(§3) After treatment, formed biofilms were washed twice with sterile PBS and then suspended in TrypLE solution (Gibco, Dublin, Ireland). A serial of 10-fold dilutions of the suspended biofilms were performed in 96-well flat bottom microplates. Then 10 μL of each dilution was plated in triplicate on MH agar using the drop method. For polymicrobial biofilms, dilutions were plated on Mannitol Salt Agar and MacConkey Agar. After overnight incubation at 37°C, CFU were counted and results were expressed as log10CFU/mL.

[2] = tested on: PAO1 + SH1000 polymicrobial biofilm; assay: Static polymicrobial biofilm, CFU enumeration; type: cell-based, S. aureus + P. aeruginosa; conditions: 6 h, 37°C
Experimental: as §2, §3

TNFα = conditions: ref Zapotoczna et al. (2017); cited from earlier work
Excerpt: (§4) Similarly, here we verified that D-Bac8c^2,5 Leu has low toxicity to human monocytes THP-1.

IL-8 = conditions: ref Zapotoczna et al. (2017); cited from earlier work
Excerpt: as §4

HaCaT = assay: MTT cell viability; type: cell-based, human; conditions: 24 h, 37°C, 5% CO2, average of three independent experiments
THP-1 = type: cell-based, human; conditions: 24 h
Experimental: Sigma-Aldrich, Ireland). […] At 90% confluence, cells were centrifuged and diluted to a 1:5 ratio with complete RPMI. THP-1 cells were seeded in a 96 well plate at a density of 1 × 10^5 cells/mL with increasing concentrations of D-Bac8c^2,5 Leu. Cells were incubated for 24 h at 37°C with 5% CO2, 95% humidity. […] The absorbance was measured at 595 nm in a microplate spectrophotometer. Cell viability was calculated as a percentage of a control treated with PBS. Two technical replicates were performed each day on three independent days.

PAO1 = assay: microbe, parasite or virus in culture; type: cell-based, Pseudomonas aeruginosa; conditions: PAO1, 18 h
Experimental: as §1
Minimum inhibitory concentration (MIC) was determined aerobically using the broth microdilution assay as recommended by the Clinical and Laboratory Standards Institute (CLSI) ([CLSI, 2018]). Briefly, 2-fold serial dilutions of the antimicrobial peptides of interest and conventional antibiotics were prepared in Mueller-Hinton broth (MHB) (Merck, Ireland) in a 96-well round bottom polypropylene plate (ThermoFisher, Ireland). Diluted bacterial suspensions in sterile PBS (Sigma, Ireland) were added to each well resulting in a final cell density of approximately 10^5 colony forming units (CFU)/mL. Microplates were incubated statically for 18 h at 37°C. In each assay, inoculated medium without antimicrobials and uninoculated medium served as growth and sterility controls, respectively. Conventional antibiotics, gentamicin (Merck, Ireland) and mupirocin (SLS, UK), were tested as comparator antimicrobials. The MIC value was defined as the lowest antimicrobial concentration showing no visible growth relative to positive (no antimicrobial agent) and negative controls (BHI alone). Experiments were conducted in triplicate, and independent replicates were performed three times to yield n = 3.

Question: Which “MIC against S. aureus strains” value (S. aureus strains) does the source give for CC(C)C[C@@H](NC(=O)[C@H](N)CCCNC(=N)N)C(=O)N[C@H](Cc1c[nH]c2ccccc12)C(=O)N[C@@H](C(=O)N[C@H](CC(C)C)C(=O)N[C@H](Cc1c[nH]c2ccccc12)C(=O)N[C@H](CCCNC(=N)N)C(=O)N[C@H](CCCNC(=N)N)C(N)=O)C(C)C [D-Bac8c^2,5 Leu] (H-[dR][dL][dW][dV][dL][dW][dR][dR]-NH2; N-terminus assumed) here?
Answer: Its value is 8 µg/mL (≈ 6.76 µM).

Question: And the “Log change vs. untreated control” value [1]?
Answer: The value was −2.44*** Log.

Question: What about the “Log change vs. untreated control” value ([2]; 24 h biofilm PAO1 + SH1000, 64 μg/mL, left column of pair under S. aureus + P. aeruginosa) of the same compound?
Answer: Its value is −0.6 Log.

Question: What about the “Log change vs. untreated control” value ([2]; 24 h biofilm PAO1 + SH1000, 64 μg/mL, right column of pair under S. aureus + P. aeruginosa) of the same compound?
Answer: Its value is −0.64 Log.

Question: What about the “Log change vs. untreated control” value ([2]; 24 h biofilm PAO1 + SH1000, 128 μg/mL, left column of pair) of the same compound?
Answer: The value was −1.65* Log.

Question: What about the “Log change vs. untreated control” value ([2]; 24 h biofilm PAO1 + SH1000, 128 μg/mL, right column of pair) of the same compound?
Answer: Its value is −1.61* Log.

Question: What about the “Log change vs. untreated control” value ([2]; 24 h biofilm PAO1 + SH1000, 256 μg/mL) of the same compound?
Answer: The value was −3.78*** Log.

Question: What about the “effect on TNFα” value (TNFα) of the same compound?
Answer: Its value is “without affecting”.

Question: What about the “biofilm-induced increase in IL-8 levels” value (IL-8) of the same compound?
Answer: The value was “inhibited”.

Question: And the “IC50 (50% cell viability), MTT” value (HaCaT)?
Answer: Its value is 426.7 µg/mL (≈ 361 µM).

Question: And the “IC50 (50% cell viability), MTT” value (THP-1)?
Answer: The value was 331.7 µg/mL (≈ 280 µM).

Question: And the MIC (PAO1)?
Answer: The MIC was 16 µg/mL (≈ 13.5 µM).
